Measured values: patent publication US12084467B2, “Therapeutic compounds for HIV virus infection” (Gilead Sciences, Inc., priority 2021, dated 2024)
Converted amounts (≈) assume the structure as drawn.

Legend:
[1] = Solubility in simulated intestinal fluids (FaSSIF / FeSSIF); conditions: 25 °C, thermodynamic from solid
[2] = Kinetic solubility analysis (CLND: total chemiluminescent nitrogen determination); conditions: 1.0% DMSO, 24-hour incubation at ambient temperature, maximum theoretical concentration 100 μM; for pH 2 solubility: 0.1N HCl; for pH 7 solubility: 1×PBS buffer (pH 7.4)
[3] = fasted state simulated intestinal fluid (FaSSIF), fassif
[4] = fed state simulated intestinal fluid (FeSSIF), fessif

Row | SMILES | solubility [1, 3] | solubility [1, 4] | pH 2 solubility [2] | pH 7 solubility [2] | solubility ([1]; fassif)
1 | CC(C)(C#Cc1ccc(-c2ccc(Cl)c3c(N(C(=O)[C@@H]4C[C@H]4C(=O)O)S(C)(=O)=O)nn(CC(F)(F)F)c23)c([C@H](Cc2cc(F)cc(F)c2)NC(=O)Cn2nc(C(F)(F)F)c3c2C(F)(F)[C@@H]2C[C@H]32)n1)S(C)(=O)=O [Compound 16, (1R,2R)-2-((4-chloro-7-(2-((S)-1-(2-((3bS,4aR)-5,5-difluoro-3-(trifluoromethyl)-3b,4,4a,5-tetrahydro-1H-cyclopropa[3,4]cyclopenta[1,2-c]pyrazol-1-yl)acetamido)-2-(3,5-difluorophenyl)ethyl)-6-(3-methyl-3-(methylsulfonyl)but-1-yn-1-yl)pyridin-3-yl)-1-(2,2,2-trifluoroethyl)-1H-indazol-3-yl)(methylsulfonyl)carbamoyl)cyclopropane-1-carboxylic acid] | 21 µg/mL (≈ 19.4 µM) | 6 µg/mL (≈ 5.55 µM) | 1 μM | 44 μM | –
2 | CC(C)(C#Cc1ccc(-c2ccc(Cl)c3c(N(C(=O)C4(C(=O)O)CC4)S(C)(=O)=O)nn(CC(F)(F)F)c23)c([C@H](Cc2cc(F)cc(F)c2)NC(=O)Cn2nc(C(F)(F)F)c3c2C(F)(F)[C@@H]2C[C@H]32)n1)S(C)(=O)=O [Compound 18, 1-((4-chloro-7-(2-((S)-1-(2-((3bS,4aR)-5,5-difluoro-3-(trifluoromethyl)-3b,4,4a,5-tetrahydro-1H-cyclopropa[3,4]cyclopenta[1,2-c]pyrazol-1-yl)acetamido)-2-(3,5-difluorophenyl)ethyl)-6-(3-methyl-3-(methylsulfonyl)but-1-yn-1-yl)pyridin-3-yl)-1-(2,2,2-trifluoroethyl)-1H-indazol-3-yl)(methylsulfonyl)carbamoyl)cyclopropane-1-carboxylic acid] | 42 µg/mL (≈ 38.9 µM) | 21 µg/mL (≈ 19.4 µM) | 1 μM | 8 μM | –
3 | CC(C)(C#Cc1ccc(-c2ccc(Cl)c3c(N(C(=O)N4CCOC[C@H]4C(=O)OCOP(=O)(O)O)S(C)(=O)=O)nn(CC(F)(F)F)c23)c([C@H](Cc2cc(F)cc(F)c2)NC(=O)Cn2nc(C(F)(F)F)c3c2C(F)(F)[C@@H]2C[C@H]32)n1)S(C)(=O)=O [Compound 23, (phosphonooxy)methyl (S)-4-((4-chloro-7-(2-((S)-1-(2-((3bS,4aR)-5,5-difluoro-3-(trifluoromethyl)-3b,4,4a,5-tetrahydro-1H-cyclopropa[3,4]cyclopenta[1,2-c]pyrazol-1-yl)acetamido)-2-(3,5-difluorophenyl)ethyl)-6-(3-methyl-3-(methylsulfonyl)but-1-yn-1-yl)pyridin-3-yl)-1-(2,2,2-trifluoroethyl)-1H-indazol-3-yl)(methylsulfonyl)carbamoyl)morpholine-3-carboxylate] | 377 µg/mL (≈ 305 µM) | 139 µg/mL (≈ 113 µM) | 2 μM | 17 μM | –
4 | CC(C)(C#Cc1ccc(-c2ccc(Cl)c3c(N(C(=O)N4CC(C(=O)O)C4)S(C)(=O)=O)nn(CC(F)(F)F)c23)c([C@H](Cc2cc(F)cc(F)c2)NC(=O)Cn2nc(C(F)(F)F)c3c2C(F)(F)[C@@H]2C[C@H]32)n1)S(C)(=O)=O [Compound 24, 1-((4-chloro-7-(2-((S)-1-(2-((3bS,4aR)-5,5-difluoro-3-(trifluoromethyl)-3b,4,4a,5-tetrahydro-1H-cyclopropa[3,4]cyclopenta[1,2-c]pyrazol-1-yl)acetamido)-2-(3,5-difluorophenyl)ethyl)-6-(3-methyl-3-(methylsulfonyl)but-1-yn-1-yl)pyridin-3-yl)-1-(2,2,2-trifluoroethyl)-1H-indazol-3-yl)(methylsulfonyl)carbamoyl)azetidine-3-carboxylic acid] | 75 µg/mL (≈ 68.5 µM) | 21 µg/mL (≈ 19.2 µM) | 1 μM | 100 μM | –
5 | CC(C)(C#Cc1ccc(-c2ccc(Cl)c3c(N(C(=O)N4CCC[C@H]4COP(=O)(O)O)S(C)(=O)=O)nn(CC(F)(F)F)c23)c([C@H](Cc2cc(F)cc(F)c2)NC(=O)Cn2nc(C(F)(F)F)c3c2C(F)(F)[C@@H]2C[C@H]32)n1)S(C)(=O)=O [Compound 29, ((S)-1-((4-chloro-7-(2-((S)-1-(2-((3bS,4aR)-5,5-difluoro-3-(trifluoromethyl)-3b,4,4a,5-tetrahydro-1H-cyclopropa[3,4]cyclopenta[1,2-c]pyrazol-1-yl)acetamido)-2-(3,5-difluorophenyl)ethyl)-6-(3-methyl-3-(methylsulfonyl)but-1-yn-1-yl)pyridin-3-yl)-1-(2,2,2-trifluoroethyl)-1H-indazol-3-yl)(methylsulfonyl)carbamoyl)pyrrolidin-2-yl)methyl dihydrogen phosphate] | 802 µg/mL | 536 µg/mL | 1 μM | 98 μM | –
6 | CC(C)(C#Cc1ccc(-c2ccc(Cl)c3c(N(C(=O)N4CCC[C@H]4CNC(=O)OCOP(=O)(O)O)S(C)(=O)=O)nn(CC(F)(F)F)c23)c([C@H](Cc2cc(F)cc(F)c2)NC(=O)Cn2nc(C(F)(F)F)c3c2C(F)(F)[C@@H]2C[C@H]32)n1)S(C)(=O)=O [Compound 32, (phosphonooxy)methyl (((S)-1-((4-chloro-7-(2-((S)-1-(2-((3bS,4aR)-5,5-difluoro-3-(trifluoromethyl)-3b,4,4a,5-tetrahydro-1H-cyclopropa[3,4]cyclopenta[1,2-c]pyrazol-1-yl)acetamido)-2-(3,5-difluorophenyl)ethyl)-6-(3-methyl-3-(methylsulfonyl)but-1-yn-1-yl)pyridin-3-yl)-1-(2,2,2-trifluoroethyl)-1H-indazol-3-yl)(methylsulfonyl)carbamoyl)pyrrolidin-2-yl)methyl)carbamate] | 478 µg/mL (≈ 383 µM) | 306 µg/mL (≈ 245 µM) | 1 μM | 100 μM | –
7 | CC(C)(C#Cc1ccc(-c2ccc(Cl)c3c(N(C(=O)N4CCC[C@H]4CN(CC(=O)O)C(=O)OCOP(=O)(O)O)S(C)(=O)=O)nn(CC(F)(F)F)c23)c([C@H](Cc2cc(F)cc(F)c2)NC(=O)Cn2nc(C(F)(F)F)c3c2C(F)(F)[C@@H]2C[C@H]32)n1)S(C)(=O)=O [Compound 33, N—(((S)-1-((4-chloro-7-(2-((S)-1-(2-((3bS,4aR)-5,5-difluoro-3-(trifluoromethyl)-3b,4,4a,5-tetrahydro-1H-cyclopropa[3,4]cyclopenta[1,2-c]pyrazol-1-yl)acetamido)-2-(3,5-difluorophenyl)ethyl)-6-(3-methyl-3-(methylsulfonyl)but-1-yn-1-yl)pyridin-3-yl)-1-(2,2,2-trifluoroethyl)-1H-indazol-3-yl)(methylsulfonyl)carbamoyl)pyrrolidin-2-yl)methyl)-N-(((phosphonooxy)methoxy)carbonyl)glycine] | – | – | 1 μM | 100 μM | 5020 µg/mL (≈ 3840 µM)

The next lines start with results.

Row | solubility [1, 3] | solubility [1, 4] | pH 2 solubility [2] | pH 7 solubility [2] | SMILES | solubility ([1]; fassif)
8 | 816 µg/mL (≈ 665 µM) | 487 µg/mL (≈ 397 µM) | 2 μM | 75 μM | CC(C)(C#Cc1ccc(-c2ccc(Cl)c3c(N(C(=O)c4ccccc4C(=O)OCOP(=O)(O)O)S(C)(=O)=O)nn(CC(F)(F)F)c23)c([C@H](Cc2cc(F)cc(F)c2)NC(=O)Cn2nc(C(F)(F)F)c3c2C(F)(F)[C@@H]2C[C@H]32)n1)S(C)(=O)=O [Compound 19, (phosphonooxy)methyl 2-((4-chloro-7-(2-((S)-1-(2-((3bS,4aR)-5,5-difluoro-3-(trifluoromethyl)-3b,4,4a,5-tetrahydro-1H-cyclopropa[3,4]cyclopenta[1,2-c]pyrazol-1-yl)acetamido)-2-(3,5-difluorophenyl)ethyl)-6-(3-methyl-3-(methylsulfonyl)but-1-yn-1-yl)pyridin-3-yl)-1-(2,2,2-trifluoroethyl)-1H-indazol-3-yl)(methylsulfonyl)carbamoyl)benzoate] | –
9 | 1110 µg/mL (≈ 835 µM) | 1420 µg/mL (≈ 1070 µM) | 1 μM | 100 μM | CC(C)(C#Cc1ccc(-c2ccc(Cl)c3c(N(C(=O)c4ccccc4CN(CCC(=O)O)C(=O)OCOP(=O)(O)O)S(C)(=O)=O)nn(CC(F)(F)F)c23)c([C@H](Cc2cc(F)cc(F)c2)NC(=O)Cn2nc(C(F)(F)F)c3c2C(F)(F)[C@@H]2C[C@H]32)n1)S(C)(=O)=O [Compound 21, 3-((2-((4-chloro-7-(2-((S)-1-(2-((3bS,4aR)-5,5-difluoro-3-(trifluoromethyl)-3b,4,4a,5-tetrahydro-1H-cyclopropa[3,4]cyclopenta[1,2-c]pyrazol-1-yl)acetamido)-2-(3,5-difluorophenyl)ethyl)-6-(3-methyl-3-(methylsulfonyl)but-1-yn-1-yl)pyridin-3-yl)-1-(2,2,2-trifluoroethyl)-1H-indazol-3-yl)(methylsulfonyl)carbamoyl)benzyl)(((phosphonooxy)methoxy)carbonyl)amino)propanoi c acid] | –
10 | 618 µg/mL | 534 µg/mL | 1 μM | 100 μM | CC(C)(C#Cc1ccc(-c2ccc(Cl)c3c(N(C(=O)c4ccccc4COP(=O)(O)O)S(C)(=O)=O)nn(CC(F)(F)F)c23)c([C@H](Cc2cc(F)cc(F)c2)NC(=O)Cn2nc(C(F)(F)F)c3c2C(F)(F)[C@@H]2C[C@H]32)n1)S(C)(=O)=O [Compound 22, 2-((4-chloro-7-(2-((S)-1-(2-((3bS,4aR)-5,5-difluoro-3-(trifluoromethyl)-3b,4,4a,5-tetrahydro-1H-cyclopropa[3,4]cyclopenta[1,2-c]pyrazol-1-yl)acetamido)-2-(3,5-difluorophenyl)ethyl)-6-(3-methyl-3-(methylsulfonyl)but-1-yn-1-yl)pyridin-3-yl)-1-(2,2,2-trifluoroethyl)-1H-indazol-3-yl)(methylsulfonyl)carbamoyl)benzyl dihydrogen phosphate] | –
